Results on six compounds are retold here after paper PMC10673615, “Quercetin-1,2,3-Triazole Hybrids as Multifunctional Anti-Alzheimer’s Agents” (Molecules, 2023).

Data set [1] deals with MCF-7 cells. The experiment in a line: Protective assay against hydrogen peroxide-induced oxidative stress in MCF-7 cells. Type of data set: cell-based, Human. Particulars: 100 µM H2O2, 2 h. How it is done: (§1) Given the importance of oxidative stress-induced apoptosis of neuronal cells in AD, we present here a study to investigate the effect of quercetin-1,2,3-triazole hybrids on H2O2-induced oxidative damage in cultured MCF-7 cells, used as a human cell model. Viability was assessed with the WST-1 test in the absence and in the presence of an oxidative stressor (10^−4 M H2O2).
(§2) MCF-7 (Human breast adenocarcinoma (MERCK—# 86012803-DNA-5UG), Database Name: ECACC collection, Accession Numbers: 86012803) was the cell line elected as a cell injury model for the study of the potential protective effect of the butyrylcholinesterase inhibitors (hybrids) against hydrogen peroxide-induced oxidative stress. Cytotoxicity of the hybrids was also evaluated.
(§3) The culture medium was subsequently replaced with different final concentrations (6.25–50 μM) of the compounds to be tested. Negative controls were prepared, incubating cells in culture media.
(§4) Parallel experiments were performed for cytotoxicity assessment and for protective effect against hydrogen peroxide-induced oxidative stress evaluation. First, 10 μL of PBS was added in the designated wells; second, 10 μL of H2O2 (reaching a final concentration of 100 µM) was added. Following a 2 h incubation period at 37 °C in 5% CO2 atmosphere incubator, cellular viability was measured by adding WST-1 dehydrogenases substrate and incubating for 1 h, and the amount of formazan dye produced was evaluated by measuring the absorbance at 440 nm.

The target of data set [2] is T1, eqBuChE (Equus caballus, UniProt P81908).
T1 construct: equine serum butyrylcholinesterase (eqBuChE); purchased Sigma-Aldrich (lyophilized powder, 10.9 U/mg); host or cells: equine serum
T1 sequence (P81908 whole entry): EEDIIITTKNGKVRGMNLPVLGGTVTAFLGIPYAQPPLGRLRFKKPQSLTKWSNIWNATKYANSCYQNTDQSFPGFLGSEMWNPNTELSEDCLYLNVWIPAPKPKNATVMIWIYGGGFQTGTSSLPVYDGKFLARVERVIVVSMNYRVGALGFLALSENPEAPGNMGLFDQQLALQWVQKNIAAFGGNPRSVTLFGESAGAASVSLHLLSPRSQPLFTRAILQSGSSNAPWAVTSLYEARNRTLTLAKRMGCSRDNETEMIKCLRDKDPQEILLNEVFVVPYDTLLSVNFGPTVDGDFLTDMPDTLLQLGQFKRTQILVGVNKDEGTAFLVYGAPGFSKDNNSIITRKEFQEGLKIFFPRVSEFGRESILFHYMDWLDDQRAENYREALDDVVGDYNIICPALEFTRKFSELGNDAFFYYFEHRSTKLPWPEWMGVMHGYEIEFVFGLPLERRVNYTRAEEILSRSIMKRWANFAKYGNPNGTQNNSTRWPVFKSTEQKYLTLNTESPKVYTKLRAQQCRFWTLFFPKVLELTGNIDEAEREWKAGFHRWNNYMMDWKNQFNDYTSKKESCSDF
The experiment in a line: Kinetic study for the inhibition of eqBuChE (Lineweaver-Burk). Type of data set: biochemical. Conditions: for Inhibition type / Ki: Lineweaver-Burk; for Ki: read-out: Ki (inhibitory constant). The source says:
The interaction with the active center of the enzyme thus seems to be favored by the presence of polar groups. Hybrid IIf presented the smaller Ki (Table 3), binding to the enzyme with the higher affinity, which can be relevant for pharmacologic applications in the future.
Lineweaver–Burk plot (1/V vs. 1/[BTCI]) was used for determining the inhibition constants (Ki’s) and the mechanism of action.

Data set [3] can be described thus: DPPH radical scavenging antioxidant assay. Here is the method: To assess the antioxidant activity of hybrids IVa–e, IIf and quercetin, the 2,2-diphenyl-1-[…] (DPPH) radical scavenging colorimetric method was used, which is one of the most widely used methods for determining antioxidant activity. In this method, antioxidants react with DPPH (which has a strong violet color) and convert it into yellow diphenylpicrylhydrazine. Compounds were assayed in the range of concentrations from 3 to 200 μg/mL. Ascorbic acid was used as positive control. […] Another piece of evidence is the similarity between the % inhibition values of hybrids IVa,b and IVd,e and quercetin.
The colorimetric DPPH assay was carried out as described in [33]. […] In brief, 30 μL of a test compound (in MeOH) was mixed with 200 μL of DPPH (100 μM in methanol) in a 96-well plate in triplicate. After 30 min incubation at room temperature in the absence of light, the absorbances were measured at 517 nm using Microplate Spectrophotometry (TriStar® S LB 942 model instrument). The free radical scavenging activity results are expressed as a percentage of DPPH inhibition according to the following formula:
% of Inhibition = 100[(A(Blank) − A(sample))/A(blank)], where A(blank) consists of methanol (30 μL) mixed with DPPH (200 μL) absorbance, and A(sample) is the absorbance value for the added sample concentration compound mixed with DPPH. Ascorbic acid was used as a positive control.
Background: The DPPH test is a chemical assay of radical scavenging.

A further data set has as its target T2, eeAChE (Electrophorus electricus, UniProt O42275).
T2 construct: catalogue number not given
The experiment in a line: Ellman cholinesterase inhibitory assay, eeAChE screening. Type of data set: biochemical. Particulars: compound 100 µM; substrate 3 mM. Here is the method:
(§5) Firstly, the inhibitory activity of the quercetin-1,2,3-triazole hybrids I–IV was screened in vitro on eeAChE and eqBuChE at a concentration of 100 μM (these enzymes are considered as models of the human isoform). The ChE inhibitory activity of all compounds was evaluated using the method of Ellman.
(§6) The inhibitory activities of title compounds against commercially available cholinesterases (eeAChE) (Electrophorus electricus, Type V-S), eqBuChE (equine serum), were conducted using minor modifications of Ellman’s assay. Nine different concentrations ([…], 37.5, 75, 150, and 300 μM in H2O:DMSO (50:50)) of each test compound were used to determine the enzyme-inhibition activity. Briefly, 55 μL of 50 mM Tris-HCl buffer at pH 8, 25 μL of eqBuChE (0.03 U/mL), 20 μL of the test or standard compounds, and 125 μL of DTNB (0.8 mM) were incubated in 96-well plates at 37 °C for 15 min. Further, 25 μL of the substrate, BTCI (0.8 mM), was added, and the solution was incubated for additional 15 min. Finally, the absorbance was measured at 412 nm wavelength using a Microplate Spectrophotometry (TriStar® S LB 942 model instrument). The IC50 values were determined from the absorbance obtained for various concentrations of the test and the standard compounds. All determinations were performed in triplicate.
(§7) To determine the % of inhibition ([I] = 100 μM), the substrate concentration (acetylthiocholine iodide for AChE; S-butyrylthiocholine iodide for BuChE) was fixed at 3 mM.

Another data set deals with Artemia salina. The experiment in a line: Artemia salina lethal toxicity assay. Type of data set: in vivo. Particulars: for LC50: Artemia salina nauplii; for concentrations without toxicity: Artemia salina. Here is the method:
(§8) Artemia salina was used for in vivo general toxicity assessment of the promising hybrids IVb, IVd, and IIf; the results are shown in Table 4 and Figure 7. K2Cr2O7 was used as a control. Hybrid IVd presented the lowest toxicity.
(§9) The ARTOXKIT M protocol was used. The percentage of dyed nauplii of Artemia salina, grown in the presence of variable concentrations of the inhibitor compounds, was measured to determine the LC50 values. A test with K2Cr2O7 was used for quality control.

Data set [4] can be described thus: Artemia salina lethal toxicity assay. Type of data set: in vivo. Particulars: Artemia salina, in vivo, other: grown in the presence of the compound, Artemia salina nauplii. Here is the method:
as §8, §9

The target in data set [5] is T1, eqBuChE. The experiment in a line: Ellman cholinesterase inhibitory assay, eqBuChE (screening and IC50). Type of data set: biochemical. Conditions: for inhibition at 100 µM: compound 100 µM, substrate 3 mM; for IC50: concentration range 1.2-300 µM, BTCI 0.8 mM, read-out: IC50 values for eqBuChE. Here is the method:
as §5, §6, §7
For orientation: In Ellman's method for cholinesterases, released thiocholine reacts with DTNB.

Another data set is described as follows: in vitro. Particulars: human. Here is the method:
as §1, §2
(§10) The compounds to be tested were firstly dissolved in dimethyl sulfoxide (DMSO) at a concentration of 4 × 10^−2 M. They were then diluted in cell growth media (EMEM) (supplemented with FBS 10%) with 0.25% DMSO to obtain solutions between 6.25 and 50.00 µM.
(§11) Eagle’s Minimum Essentia Medium (EMEM), including 10% fetal bovine serum (FBS), 100 IU/mL penicillin, and 100 μg/mL streptomycin, was used to culture MCF-7 cells at 37 °C in 5% CO2 atmosphere incubator with media replenished every 2 days. A total of 5 × 10^3 cells were cultured in 96-well plates and incubated for 72 h prior to stimulus application.
as §3, §4

The test system of data set [6] is REM-138 cell line (canine breast cancer). The arrangement: method as in doi:10.1055/s-0040-1719928. Particulars: REM cells; 72 h incubation; cited from earlier work.
Data set [7] relates to MCF-7 cells. The data set is described as follows: in vitro. How it is done: as §1, §2, §10, §11, §3, §4

Like-named read-outs stand apart in the source and are kept apart here.

T2 sequence (O42275 24-633): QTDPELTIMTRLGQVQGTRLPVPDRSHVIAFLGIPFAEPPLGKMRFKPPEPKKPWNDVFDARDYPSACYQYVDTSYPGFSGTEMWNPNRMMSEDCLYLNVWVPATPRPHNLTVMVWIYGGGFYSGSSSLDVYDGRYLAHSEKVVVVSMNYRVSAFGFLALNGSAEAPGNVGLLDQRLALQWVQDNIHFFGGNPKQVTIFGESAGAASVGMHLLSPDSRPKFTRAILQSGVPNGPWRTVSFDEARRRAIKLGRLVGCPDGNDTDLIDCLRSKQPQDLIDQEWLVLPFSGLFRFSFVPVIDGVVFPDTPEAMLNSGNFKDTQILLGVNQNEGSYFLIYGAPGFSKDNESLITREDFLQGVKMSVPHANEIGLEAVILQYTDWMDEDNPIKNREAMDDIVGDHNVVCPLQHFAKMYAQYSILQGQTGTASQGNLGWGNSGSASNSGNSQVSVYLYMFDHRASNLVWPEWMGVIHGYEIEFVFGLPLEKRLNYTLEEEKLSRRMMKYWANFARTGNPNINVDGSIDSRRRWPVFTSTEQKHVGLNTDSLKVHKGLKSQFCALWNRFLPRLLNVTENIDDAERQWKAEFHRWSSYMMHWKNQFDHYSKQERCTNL

In the case of `CC(C)(O)c1cn(CCCCOc2c(-c3ccc(O)c(O)c3)oc3cc(O)cc(O)c3c2=O)nn1` [IVd, 2-(3,4-Dihydroxyphenyl)-5,7-dihydroxy-3-(4-(4-(2-hydroxypropan-2-yl)-1H-1,2,3-triazol-1-yl)butoxy)-4H-chromen-4-one], the “cellular antioxidant protection against H2O2” value in the data set on MCF-7 cells [1] is given as “equally effective in the antioxidant protection”. Further, the Inhibition type result on eqBuChE [2] is “competitive inhibition”. Also, the Ki (in general, the equilibrium dissociation constant of an inhibitor or competing ligand from its target) at eqBuChE [2] is 36 µM. Besides, the Vmax app on eqBuChE [2] (inhibitor 17.5 µM) was found to be 9.6 U.mg^−1; at eqBuChE [2] (inhibitor 35 µM) it was 9.0 U.mg^−1. Besides, the DPPH antioxidant activity entry in data set [3] (100 μg/mL) is on record as “potent antioxidant activity”. In addition, the inhibition (as a rule, the change of the read-out against control, counted positive when it falls) at 100 µM at eeAChE amounted to 3.65%; against eqBuChE [5], 56.6%. Besides, the LC50 (in general, the concentration that kills 50% of the test population) with Artemia salina (read-out: LC50) was at least 100 µM; in data set [4], above 100 µM. Moreover, the half-maximal inhibitory concentration (IC50) (usually the midpoint of a concentration-inhibition curve) at eqBuChE [5] amounted to 39 µM. Further, the EC50 (commonly the concentration needed to bring the measured effect to its halfway point) at 2 h in “in vitro” was above 50 µM.
Consider `[K+].[K+].[O]=[Cr](=[O])([O-])[O][Cr](=[O])(=[O])[O-]` [Hybrid K2Cr2O7, K2Cr2O7, reference compound], for which the median lethal concentration (LC50) with Artemia salina (quality control) was determined as 22.7 µg/mL.
For `COc1cc(OC)c2c(=O)c(OCCCCn3cc(CN4C(=O)C(=O)c5ccccc54)nn3)c(-c3ccc(OC)c(OC)c3)oc2c1` [IIf, 1-((1-(4-((2-(3,4-Dimethoxyphenyl)-5,7-dimethoxy-4-oxo-4H-chromen-3-yl)oxy)butyl)-1H-1,2,3-triazol-4-yl)methyl)indoline-2,3-dione], the “cellular antioxidant protection against H2O2” value in the data set with MCF-7 cells [1] is listed as “equally effective in the antioxidant protection”. Also, at eqBuChE [2], the Inhibition type result is listed as “competitive inhibition”. At eqBuChE [2], the Ki amounted to 6.2 µM. Further, the Vmax app at eqBuChE [2] (inhibitor 5 µM) is listed as 11.8 U.mg^−1; at eqBuChE [2] (inhibitor 20 µM), 11.4 U.mg^−1; at eqBuChE [2] (inhibitor 40 µM), 13.4 U.mg^−1. Besides, the DPPH antioxidant activity entry in [3] (3 to 200 μg/mL) was “no antioxidant activity”. The inhibition at 100 µM against eeAChE turned out to be 24.3%; at eqBuChE [5], 100%. This compound also registered a concentrations without toxicity with Artemia salina of at most 10 µM. Besides, the median lethal concentration (LC50) in data set [4] was found to be 34.6 µM. Besides, the 50% inhibitory concentration (IC50) at eqBuChE [5] stood at 11.2 µM.
Take `O=c1c(OCCCCn2cc(C3CC3)nn2)c(-c2ccc(O)c(O)c2)oc2cc(O)cc(O)c12` [IVb, 3-(4-(4-Cyclopropyl-1H-1,2,3-triazol-1-yl)butoxy)-2-(3,4-dihydroxyphenyl)-5,7-dihydroxy-4H-chromen-4-one]: the “cellular antioxidant protection against H2O2” value in the data set with MCF-7 cells [1] is on record as “equally effective in the antioxidant protection”. Moreover, on eqBuChE [2], the Inhibition type result was “mixed type (non-competitive)”. Besides, on eqBuChE [2], the inhibition constant Ki was 30 µM. Further, the Vmax app at eqBuChE [2] (inhibitor 17.5 µM) turned out to be 7.5 U.mg^−1; at eqBuChE [2] (inhibitor 35 µM), 6.5 U.mg^−1; on eqBuChE [2] (inhibitor 70 µM), 4.5 U.mg^−1. For the same compound, the cytotoxic concentration in data set [6] is on record as above 10 µM; with MCF-7 cells [7] (human, 2 h), above 25 µM. Further, the DPPH antioxidant activity result in data set [3] (100 μg/mL) was “potent antioxidant activity”. The inhibition at 100 µM was determined as 5.21% against eeAChE and 90.5% at eqBuChE [5]. This compound also showed a concentrations without toxicity in the data set with Artemia salina of at most 10 µM. Besides, in data set [4], the LC50 was 10 to 100 µM. Also, on eqBuChE [5], the half-inhibitory concentration (IC50) came out at 32.4 µM.
Take `COc1ccc2c3c1O[C@H]1C[C@@H](O)C=C[C@@]31CCN(C)C2` [Galantamine, reference compound]: the “cellular antioxidant protection against H2O2” value with MCF-7 cells [1] is given as “good antioxidant cellular protection”. Also, in the data set on MCF-7 cells [7] (concentrations tested 6.25-50 μM, MCF-7), the “effect on cellular viability” value is on record as “did not reduce cellular viability”.
Take `O=c1c(OCCCCn2cc(-c3ccccc3)nn2)c(-c2ccc(O)c(O)c2)oc2cc(O)cc(O)c12` [IVa, 2-(3,4-Dihydroxyphenyl)-5,7-dihydroxy-3-(4-(4-phenyl-1H-1,2,3-triazol-1-yl)butoxy)-4H-chromen-4-one]: in [6], the cytotoxic concentration is on record as above 10 µM. In addition, the DPPH antioxidant activity entry in [3] (100 μg/mL) was “potent antioxidant activity”. Further, on eeAChE, the inhibition at 100 µM is 0%. Also, at eqBuChE [5], the inhibition at 100 µM came to 82.8% and the IC50 is 24.7 µM. Moreover, in the data set with MCF-7 cells [7] (6.25 μM, MCF-7, 2 h, without H2O2), the “reduction of cellular viability” value was found to be 40%.
